In data set [1] the target is T1, Dipeptidyl peptidase 4 (Homo sapiens, UniProt P27487).
Description: Binding affinity to human recombinant DPP4 (39 to 766 residues) by surface plasmon resonance analysis
The target of data set [2] is T1, Dipeptidyl peptidase 4. The source holds these as a separate data set.
Data set [3] is described as follows: Lipophilicity, log D of the compound at pH 7.4. The data set is classed as physicochemical. The note with it: buffer.
In data set [4] the target is T2, Muscarinic acetylcholine receptor M2 (Homo sapiens, UniProt P08172).
T2 sequence (P08172 whole entry): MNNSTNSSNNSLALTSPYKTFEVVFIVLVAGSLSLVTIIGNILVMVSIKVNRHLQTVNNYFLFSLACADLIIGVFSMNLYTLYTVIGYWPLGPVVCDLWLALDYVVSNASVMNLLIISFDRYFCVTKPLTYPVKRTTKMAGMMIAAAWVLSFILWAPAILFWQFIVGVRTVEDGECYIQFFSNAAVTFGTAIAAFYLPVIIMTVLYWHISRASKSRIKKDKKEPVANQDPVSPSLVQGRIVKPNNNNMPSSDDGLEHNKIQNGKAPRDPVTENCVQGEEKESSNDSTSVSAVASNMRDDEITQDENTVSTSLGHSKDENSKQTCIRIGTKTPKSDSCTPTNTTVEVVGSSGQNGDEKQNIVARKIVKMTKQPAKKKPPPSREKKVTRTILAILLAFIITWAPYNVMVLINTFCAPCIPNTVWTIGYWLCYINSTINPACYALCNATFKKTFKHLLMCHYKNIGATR
In words: Inhibition of M2 receptor (unknown origin).

For data set [5], the target named is Muscarinic acetylcholine receptor M3 (Homo sapiens, UniProt P20309). Description: Inhibition of M3 receptor (unknown origin).
Data set [6] is described as follows: Cmax in human plasma at 5 mg. In kind it is ADME, cell-free. Set-up: dose 5 mg.
Data set [7] can be described thus: Renal clearance in wild type mouse at 0.01 mg/kg, iv. The data set is classed as ADME, organism-based. The note with it: in vivo.
Data set [8] is described as follows: Renal clearance in DPP4 knockout mouse at 0.01 mg/kg, iv. The data set is classed as ADME, organism-based. The note with it: in vivo.

SMILES strings stand for the structures.

T1 sequence (P27487 whole entry): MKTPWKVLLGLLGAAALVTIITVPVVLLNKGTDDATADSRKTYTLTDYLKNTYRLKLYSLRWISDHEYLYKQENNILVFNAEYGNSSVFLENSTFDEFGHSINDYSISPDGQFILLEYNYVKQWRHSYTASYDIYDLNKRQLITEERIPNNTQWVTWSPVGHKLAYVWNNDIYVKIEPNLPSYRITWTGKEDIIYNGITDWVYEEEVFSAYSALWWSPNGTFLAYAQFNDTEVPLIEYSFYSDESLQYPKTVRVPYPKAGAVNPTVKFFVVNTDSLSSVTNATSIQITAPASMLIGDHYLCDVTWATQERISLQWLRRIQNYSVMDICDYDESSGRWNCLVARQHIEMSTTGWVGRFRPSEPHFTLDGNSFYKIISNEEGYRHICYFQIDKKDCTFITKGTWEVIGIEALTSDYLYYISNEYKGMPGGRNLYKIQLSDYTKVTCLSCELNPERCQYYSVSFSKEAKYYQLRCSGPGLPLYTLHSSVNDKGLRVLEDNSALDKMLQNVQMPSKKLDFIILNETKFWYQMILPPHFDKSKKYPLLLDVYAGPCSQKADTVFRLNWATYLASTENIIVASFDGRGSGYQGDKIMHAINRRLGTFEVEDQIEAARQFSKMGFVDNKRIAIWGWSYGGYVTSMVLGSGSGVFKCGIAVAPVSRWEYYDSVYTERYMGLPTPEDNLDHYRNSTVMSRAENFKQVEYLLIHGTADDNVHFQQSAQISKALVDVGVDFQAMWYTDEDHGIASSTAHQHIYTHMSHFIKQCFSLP
Chain of Muscarinic acetylcholine receptor M3 (P20309 whole entry): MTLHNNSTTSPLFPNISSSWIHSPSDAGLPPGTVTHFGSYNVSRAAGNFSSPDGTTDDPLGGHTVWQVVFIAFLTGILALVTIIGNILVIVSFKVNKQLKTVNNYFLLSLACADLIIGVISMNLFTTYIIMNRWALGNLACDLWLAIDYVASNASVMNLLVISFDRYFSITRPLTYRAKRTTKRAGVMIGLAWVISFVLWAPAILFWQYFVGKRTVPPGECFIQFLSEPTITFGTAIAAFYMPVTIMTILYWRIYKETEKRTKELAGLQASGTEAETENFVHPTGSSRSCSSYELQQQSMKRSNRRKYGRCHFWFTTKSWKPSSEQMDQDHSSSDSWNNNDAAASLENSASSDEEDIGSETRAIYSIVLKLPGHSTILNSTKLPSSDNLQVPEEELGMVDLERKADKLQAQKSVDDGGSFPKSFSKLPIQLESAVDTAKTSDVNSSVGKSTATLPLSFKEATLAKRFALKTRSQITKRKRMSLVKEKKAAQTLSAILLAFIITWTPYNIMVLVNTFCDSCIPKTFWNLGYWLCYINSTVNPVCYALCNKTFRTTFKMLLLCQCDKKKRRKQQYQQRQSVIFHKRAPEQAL

The term Kd denotes the constant that tells how readily two partners part at equilibrium. High values mean a looser complex, low ones a tighter complex. What is called logD is lipophilicity at a set pH, counting ionised and neutral species. For the compound `O=c1[nH]c(=O)c2c(nc(N3CCNCC3)n2Cc2ccccc2)[nH]1`, the Kd is 806 nM on Dipeptidyl peptidase 4 [1] and 246 nM at Dipeptidyl peptidase 4 [2]. The logD in data set [3] fell in the range of 0 to 1.6.

A word on the IC50: it is the point on the concentration scale where inhibition reaches its midpoint. A high value points to a need for much substance. As to `CC(C)=CCn1c(N2CCC[C@H](N)C2)nc2c1c(=O)n(CC(=O)c1ccccc1)c(=O)n2C`, the IC50 in data set [4] and in data set [5] was 150 nM in each case. In data set [3], this compound showed a logD of 0 to 1.6.

In general, Cmax refers to the maximum level reached in the sampled fluid or tissue. In turn, `CC#CCn1c(N2CCC[C@@H](N)C2)nc2c1c(=O)n(Cc1nc(C)c3ccccc3n1)c(=O)n2C` [LINAGLIPTIN] came in with a Cmax in data set [6] of 10 nM. The values for the CL in data set [7] and in data set [8] were 2.7% and 24.2%, respectively. The logD in data set [3] is 0 to 1.6.

`Cn1c(=O)c2c(nc(N3CCCC(N)C3)n2Cc2ccccc2)n(C)c1=O` (stereo unspecified): the logD in data set [3] is 0 to 1.6.

The values are drawn from ChEMBL document CHEMBL4431324, “Comparative Analysis of Binding Kinetics and Thermodynamics of Dipeptidyl Peptidase-4 Inhibitors and Their Relationship to Structure” (J Med Chem, 2016).
